According to patent US20150038694A1, “GLUCOSE D[…] TO ARSENIC FOR USE IN THE TREATMENT OF TUMOUR” (XENUS SRL, priority 2012, published 2015):
Entries after “also recorded” stand apart in the source; their conditions may differ.

Tests used:
[1] = system: cellular line of human promyelokytic leukemia (HL60); assay: MTT test (reduction of tetrazolium salts) on human promyelokytic leukemia cells; type: cell-based; details: increasing concentrations
Experimental: (§1) The compound GD152.186 (PM 449,4) produced by means of above mentioned synthesis process, has been tested in a series of preclinical testing on cellular lines of human tumors, and in particular on a cellular line of human neuroblastoma (SK-N-BE) and on a cellular line of human promyelokytic leukemia (HL60).
Instead, the HL60 cells grow in suspension at a temperature of 37° C. and in 5% CO2, and the culture medium used is RPMI 1640 with 10% FBS (fetal bovine serum), 1% L-Glutamine and 1% Penicillin/Streptomycin antibiotics.
(§2) As a positive control, arsenic trioxide (As2O3, Sigma-Aldrich) has been used, as its activity has already been tested on cellular lines of human neuroblastoma and human promyelokytic leukemia.
(§3) The compound GD152.186 has been dissolved in sterile water so as to reach the final concentrations of 100-300-500-1000-2000 μM.
(§4) The test used for evaluating the persistence of tumor cells after the contact with said compound GD152.186 is the MTT test (reduction of tetrazolium salts).
Said test is based on the ability of the mitochondrial respiratory enzyme of the cells, usually called succinate tetrazolium reductase, of reducing a tetrazolium salt (3-[4,5-dimethylthiazol-2-yl]-2,5-diphenyltetrazolium bromide (MTT, Sigma Aldrich)) into an insoluble compound of blue colour, usually called formazan. […]

[2] = system: cellular line of human neuroblastoma (SK-N-BE); assay: MTT test (reduction of tetrazolium salts) on human neuroblastoma cells; type: cell-based; details: for reduction of the cell survival (formazan absorbance data): final concentrations 10-30-50-100 and 200 μM, forty-eight, seventy-two and ninety-six hours, absorbance at 570 nm; for morphologic changes visible with an optical microscope (loss of adherence to the plate, roundish shape with irregular outlines): treated cells
Source text: as §1
The culture medium used for growing the SK-N-BE cells is DMEM High Glucose (Dulbecco's Modified Eagle Medium) with 10% FBS (fetal bovine serum), 1% L-Glutamine and 1% Penicillin/Streptomycin antibiotics.
as §2, §3, §4
Said test is based on the ability of the mitochondrial respiratory enzyme of the cells, usually called succinate tetrazolium reductase, of reducing a tetrazolium salt (3-[4,5-dimethylthiazol-2-yl]-2,5-diphenyltetrazolium bromide (MTT, Sigma Aldrich)) into an insoluble compound of blue colour, usually called formazan.
Said reduction process occurs only in living cells and not in dead or damaged ones, consequently, the amount of formazan produced is directly proportional to the number of cells metabolically active in the tested sample.
96-well plates have been used for performing the tests, wherein in each well 5.000 (SK-N-BE) cells or 50.000 (HL60) cells have been sown, suspended in 180 μL of medium and then incubated at 37° C. and 5% CO2.
Forty-eight hours later, the cells have been treated with 20 μL of growing concentrations (in six replicates) of arsenic trioxide (100-300-500-1000 μM) and of GD152.186 compound (100-300-500-1000-2000 μM), so as to obtain inside each single well the final concentrations of 10-30-50-100 and 200 μM.
To one six-well column no compound is added but only 20 μL of sterile water, for following the natural growth of the cells.
The plates are incubated again for forty-eight, seventy-two and ninety-six hours, at the end thereof the test is performed.
To each single well 20 μL of MTT solution (5 mg·m-1 in sterile […]) have been added, giving an incubation time of three hours, functional to the formation of formazan.
Then, the supernatant is removed from each well and 200 μL of DMSO are added.
After about ten minutes the concentration level of formazan has been taken by means of a spectrophotometer set at a wave length of 570 nm.

Compound | reduction of the cell survival (formazan absorbance data), HL60 cells [1] | reduction of the cell survival (formazan absorbance data) [2] | morphologic changes visible with an optical microscope (loss of adherence to the plate, roundish shape with irregular outlines) [2]
OC[C@H]1O[C@H](CCNc2ccc([As]3SCCS3)cc2)[C@H](O)[C@@H](O)[C@@H]1O [GD152.186] | reduction of the cell survival | reduction of the cell survival is directly depending on the dosage of the GD152.186 compound and on the time of exposure; also recorded: most visible when the cells have come into contact with high concentrations (100-200 μM) | morphologic changes have been surprisingly detected
arsenic trioxide [reference compound] | reduction of the cell survival | reduction of the cell survival is strictly dependent on the arsenic trioxide dosage and on the time of exposure | morphologic changes have been found
